Experimental data reported in patent publication US20050209157A1, “Short bioactive peptides and methods for their use” (priority 2001, published 2005).
In brackets after ≈: the same amount, converted by molar mass. Where two headings read alike, the source gives them in different places. No end group written: not given here.

Tests used:
[1] = system: Pseudomonas aeruginosa H187; type: cell-based; conditions: Table 8; in µg/mL
[2] = system: Candida glabrata ATCC15126; assay: Antimicrobial assays II, NCCLS broth microdilution MIC; type: cell-based; conditions: Table 8; in µg/mL
[3] = system: human red blood cells (RBC); assay: in vitro; type: cell-based; conditions: hemolytic assay, concentration at 50% hemolysis, 1 hour at 37° C.
[4] = system: Pseudomonas aeruginosa ATCC 9027; assay: Antimicrobial assay I, MIC by OD measurement; type: cell-based; conditions: 37° C. for 24 hours, absorbance 620 nm
[5] = system: Staphylococcus aureus ATCC 6538; assay: Antimicrobial assay I, MIC by OD measurement; type: cell-based; conditions: 37° C. for 24 hours, absorbance 620 nm
P. aeruginosa H774 = type: cell-based, Pseudomonas aeruginosa; conditions: P. aeruginosa H744; nalidixic acid + peptide at ¼ MIC; 0.5 or less = synergy
Method in brief: (§1)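 FIC index, computed as 0.25 plus the ratio of combination to single-agent antibiotic MIC, defines synergy when 0.5 or below. Peptide fixed at one quarter MIC while chloramphenicol or nalidixic acid was serially diluted two-fold; antibiotic-alone MICs served as baselines.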

P. aeruginosa H374 [6] = type: cell-based, Pseudomonas aeruginosa; conditions: for MIC Cm-comb.: MIC of chloramphenicol with peptide at ¼ MIC; for MIC Nal-comb.: MIC of nalidixic acid with peptide at ¼ MIC; for FIC Index: 0.5 or less = synergy
Method in brief: as §1

P. aeruginosa = type: cell-based, Pseudomonas aeruginosa; conditions: P. aeruginosa H744; MIC of nalidixic acid with peptide at ¼ MIC
Method in brief: as §1

MCF7 = assay: Anti-cancer assay, MTT, LD50; type: cell-based; conditions: MCF7 breast adenocarcinoma line, MTT, 24 hours with peptide
Description: (§2) Numbers are LD50 values (μg/mL).

SW480 = assay: Anti-cancer assay, MTT, LD50; type: cell-based; conditions: SW480 colon adenocarcinoma line, 24 hours with peptide
Description: as §2

H1299 = assay: Anti-cancer assay, MTT, LD50; type: cell-based; conditions: 24 hours with peptide, lung large cell carcinoma
Description: as §2

BMKC = assay: Anti-cancer assay, MTT, LD50; type: cell-based; conditions: BMKC cloned melanoma line, 24 hours with peptide
Description: as §2

PC3 = assay: Anti-cancer assay, MTT, LD50; type: cell-based; conditions: 24 hours with peptide, prostate adenocarcinoma
Description: as §2

HeLaS3 = assay: Anti-cancer assay, MTT, LD50; type: cell-based; conditions: 24 hours with peptide, cervical carcinoma
Description: as §2

E. coli UB1005 = type: cell-based, Escherichia coli; conditions: mean of three; 16 to 20 hours at 35° C.; in µg/mL
S. typhimurium 14028S = type: cell-based, Salmonella typhimurium; conditions: mean of three; 16 to 20 hours at 35° C.; in µg/mL
P. aeruginosa H374 [7] = type: cell-based, Pseudomonas aeruginosa; conditions: mean of three; 16 to 20 hours at 35° C.
[8] = system: yeast (Saccharomyces cerevisiae); assay: Antimicrobial assay I, yeast assay in RPMI 1640; type: cell-based; conditions: RPMI 1640 media
WI38 = conditions: MTT, 24 hours with peptide; for WI38 LD50: normal fibroblast line
in vitro = conditions: human, WI38 normal lung fibroblast cells, LD50 WI38, WI38 normal lung fibroblast line, MTT, 24 hours with peptide
[9] = chloramphenicol + peptide at ¼ MIC
[10] = nalidixic acid + peptide at ¼ MIC, FIC=0.25+MIC comb/MIC alone

Molecule | MIC P. aeruginosa H187 [1] | MIC C. glabrata ATCC15126 [2] | LD50 [3] | FIC Index (P. aeruginosa H774) | MIC Cm-comb. (P. aeruginosa H374 [6]) | MIC Nal-comb. (P. aeruginosa H374 [6]) | FIC Index (P. aeruginosa H374 [6]; [9]) | FIC Index (P. aeruginosa H374 [6]; [10]) | MIC Nal-comb. (P. aeruginosa) | LD50 MCF7 (MCF7) | LD50 SW480 (SW480) | H1299 LD50 (H1299) | LD50 BMKC (BMKC) | PC3 LD50 (PC3) | HeLaS3 LD50 (HeLaS3) | E. coli UB1005 MIC (E. coli UB1005) | S. typhimurium 14028S MIC (S. typhimurium 14028S) | P. aeruginosa H374 MIC (P. aeruginosa H374 [7]) | WI38 LD50 (WI38) | CC50 at 24 h (in vitro) | other results
FAKKLAKKLKKLAKLALAL-OH [P29 (14)] | 32 | 128 | – | – | – | – | – | – | – | – | – | – | – | – | – | – | – | – | – | – | –
FAKKLLAKALKL-NH2 [P110 (74)] | 64 | 128 | – | – | – | – | – | – | – | – | – | – | – | – | – | – | – | – | – | – | –
FAKKLAKLAKKLAKAL-NH2 [P109] | – | – | > (> indicates greater than 1000) | 1.25 | 16 µg/mL | 2500 µg/mL | 1.25 | 0.75 | 624 µg/mL | > (> indicates greater than 1000) | > (> indicates greater than 1000) | > (> indicates greater than 1000) | > (> indicates greater than 1000) | > (> indicates greater than 1000) | > (> indicates greater than 1000) | 16 | 32 | 8 µg/mL | > (> indicates greater than 1000) | – | paerug9027 (MIC) [4]: 200 µg/mL; staph6538 (MIC) [5]: > (> indicates greater than 200 μg/mL); yeast (MIC or MFC) [8]: 200 µg/mL; LD50 WI38 (WI38; WI38 normal lung fibroblast line): > (> indicates greater than 1000)
CC(C)C[C@H](NC(=O)[C@H](C)NC(=O)[C@H](CCCCN)NC(=O)[C@H](CC(C)C)NC(=O)[C@H](C)NC(=O)[C@H](CC(C)C)NC(=O)[C@H](C)NC(=O)[C@H](CC(C)C)NC(=O)[C@H](CCCCN)NC(=O)[C@H](C)NC(=O)[C@H](CC(C)C)NC(=O)[C@H](CCCCN)NC(=O)[C@H](CCCCN)NC(=O)[C@H](C)NC(=O)[C@H](CC(C)C)NC(=O)[C@H](CCCCN)NC(=O)[C@H](CCCCN)NC(=O)[C@H](CC(C)C)NC(=O)[C@H](CCCCN)NC(=O)[C@H](CCCCN)NC(=O)[C@H](C)NC(=O)[C@H](CC(C)C)NC(=O)[C@H](CCCCN)NC(=O)[C@H](CCCCN)NC(=O)[C@H](C)NC(=O)[C@@H](N)Cc1ccccc1)C(=O)N[C@@H](C)C(=O)N[C@@H](CC(C)C)C(=O)N[C@@H](CCCCN)C(=O)N[C@@H](C)C(=O)O [P100, reference compound] | – | – | > (> indicates greater than 1000) | 1.25 | 16 µg/mL | 2500 µg/mL | 1.25 | 0.75 | 624 µg/mL | 175 µg/mL | 82 µg/mL | – | 120 µg/mL | – | – | 0.5 | 4 | 8 µg/mL | – | 95 µg/mL (≈ 29.4 µM) | –
FAKKLLAKALKL-NH2 [P110] | – | – | > (> indicates greater than 1000) | 1.25 | 16 µg/mL | 2500 µg/mL | 1.25 | 0.75 | 624 µg/mL | 180 µg/mL | 325 µg/mL | 95 µg/mL | 400 µg/mL | > (> indicates greater than 1000) | 540 µg/mL | 16 | 32 | 8 µg/mL | 45 µg/mL | 45 µg/mL | paerug9027 (MIC) [4]: 200 µg/mL; staph6538 (MIC) [5]: > (> indicates greater than 200 μg/mL); yeast (MIC or MFC) [8]: 200 µg/mL
FAKKLAKLAKKLAKAL-NH2 [P109 (73)] | 64 | 128 | – | – | – | – | – | – | – | – | – | – | – | – | – | – | – | – | – | – | –
LPKWKVFKKIEKVGRNIRNGIVKAGPAIAVLGEAKALG-NH2 [P306, reference compound] | – | – | > (> indicates greater than 1000) | 0.75 | 8 µg/mL | 5000 µg/mL | 0.75 | 1.25 | 312 µg/mL | 50 µg/mL | 240 µg/mL | 120 µg/mL | 170 µg/mL | 370 µg/mL | 250 µg/mL | 4 | 4 | 8 µg/mL | 320 µg/mL | 320 µg/mL | –
CC(C)C[C@H](NC(=O)[C@H](C)NC(=O)[C@H](CCCCN)NC(=O)[C@H](CC(C)C)NC(=O)[C@H](C)NC(=O)[C@H](CC(C)C)NC(=O)[C@H](C)NC(=O)[C@H](CC(C)C)NC(=O)[C@H](CCCCN)NC(=O)[C@H](C)NC(=O)[C@H](CC(C)C)NC(=O)[C@H](CCCCN)NC(=O)[C@H](CCCCN)NC(=O)[C@H](C)NC(=O)[C@H](CC(C)C)NC(=O)[C@H](CCCCN)NC(=O)[C@H](CCCCN)NC(=O)[C@H](CC(C)C)NC(=O)[C@H](CCCCN)NC(=O)[C@H](CCCCN)NC(=O)[C@H](C)NC(=O)[C@H](CC(C)C)NC(=O)[C@H](CCCCN)NC(=O)[C@H](CCCCN)NC(=O)[C@H](C)NC(=O)[C@@H](N)Cc1ccccc1)C(=O)N[C@@H](C)C(=O)N[C@@H](CC(C)C)C(=O)N[C@@H](CCCCN)C(=O)N[C@@H](C)C(=O)O [P100 (163)] | 32 | >128 | – | – | – | – | – | – | – | – | – | – | – | – | – | – | – | – | – | – | –
FAKKLAKLAKKALAL-NH2 [P39, FAKKLAKLAKKALAL-NH2] | – | – | > (> indicates greater than 1000) | 1.25 | 8 µg/mL | 1250 µg/mL | 0.75 | 0.5 | 624 µg/mL | 130 µg/mL | 435 µg/mL | 420 µg/mL | 510 µg/mL | 310 µg/mL | 620 µg/mL | 4 | 16 | 16 µg/mL | 300 µg/mL | 300 µg/mL | paerug9027 (MIC) [4]: 25 µg/mL; staph6538 (MIC) [5]: 100 µg/mL; yeast (MIC or MFC) [8]: 100 µg/mL
